{"source": "patent US10130601B2", "about": "“Use of a composition comprising fish oil and juice for the treatment of inflammation” (Smartfish AS, priority 2013, dated 2018)", "key": {"[1]": {"assay": "ALSFRS-R score (self-reported) in ALS patients", "type": "in vivo, human", "from_the_text": "Patients in the study self-reported the ALSFRS-R score. The Amyotrophic Lateral Sclerosis Functional Rating Scale (ALSFRS-R) is a score from 0-48 which assesses disability in patients with MND. It was developed by Cedarbaum and colleagues (Cedarbaum J M. The ALSFRS-R: a revised ALS functional rating scale that incorporates assessments of respiratory function. BDNF ALS Study Group (Phase III). J Neurol Sci 1999; 169: 13-21). There are twelve questions, some asking about daily activities and how much help a patient needs with them, and some about specific symptoms.\n1 for 8 months, no. 2 for 2 months, no. 6 for 4 months, no 7 for 5 months, and no. 11 for 4 months (Table 1). […] 1: 2.6 loss to 0.4 loss, no. 6: from 0.7 loss to 1 point gain, no. 11: from 3.5 loss to 0.5 loss. Said three patients were the patients receiving the composition of the present invention."}, "[2]": {"system": "inflammatory genes in peripheral blood mononuclear cells", "assay": "Inflammatory gene transcription in peripheral blood mononuclear cells of ALS patients", "type": "in vivo, human", "details": "PBMCs", "from_the_text": "The aim of this study was to investigate in vivo baseline inflammatory gene transcription in peripheral blood mononuclear cells and the effects of tozilizumab (Actemra®) in 11 ALS patients and also measure the disability before and after the therapy comparing the FRS-R score (Functional Rating Scale). Fiala et al., (to be published). The patients were free to take nutritional supplements. Three patients were taking the composition used in the present invention, transcription results are presented in Example 1 together with the results from the ALSFRS-R score (The Amyotrophic Lateral Sclerosis Functional Rating Scale).\nIn vivo baseline inflammatory gene transcription in peripheral blood mononuclear cells of 11 ALS patients and the effects of tocilizumab (Actemra®) (cytokine antagonist) infusions were studied tocilizumab inhibits global interleukin-6 (IL6) signaling, a key mechanism in chronic rheumatoid disorder.\nAt base line one half of the ALS subjects had strong inflammatory activation (Group 1) (8 genes up regulated >4-fold, P<0.05 vs. controls) and the other half (Group 2) had weak activation (Group 2)."}}, "data": [{"substance": "tocilizumab [Actemra]", "values": [{"measurement": "FRS-R change After Actemra", "setting": "[1]; patient #1, spinal ALS, Group 1, before −2.6, treated 8 months, also took the composition", "value": "−0.4", "unit": "points/mo"}, {"measurement": "FRS-R change After Actemra", "setting": "[1]; patient #2, spinal ALS, Group 1, before −1.3, treated 2 months", "value": "−0.75", "unit": "points/mo"}, {"measurement": "FRS-R change After Actemra", "setting": "[1]; patient #6, spinal ALS, Group 2, before −0.7, treated 4 months, also took the composition", "value": "+1.0 points/mo"}, {"measurement": "FRS-R change After Actemra", "setting": "[1]; patient #7, spinal ALS, Group 2, before −0.37, treated 5 months", "value": "−2.0", "unit": "points/mo"}, {"measurement": "FRS-R change After Actemra", "setting": "[1]; patient #11, spinal ALS, Group unknown, before −3.5, treated 4 months, also took the composition", "value": "−0.5", "unit": "points/mo"}, {"measurement": "regulation of inflammatory genes after infusions", "setting": "[2]; ALS patients of Group 1 (strong inflammation)", "value": "down regulation"}, {"measurement": "regulation of inflammatory genes after infusions", "setting": "[2]; ALS patients of Group 2 (weak inflammation)", "value": "up regulation"}]}]}
